Active and inactive are the calls of the source. The rule behind the calls is not given here.
Key:
MCF7 = assay: Growth inhibition of human MCF7 cells after 48 hrs by sulforhodamine B assay; type: functional; conditions: MCF7, 48 h
NCI-H460 = assay: Growth inhibition of human NCI-H460 cells after 48 hrs by sulforhodamine B assay; type: functional; conditions: NCI-H460, 48 h
SF-268 = assay: Growth inhibition of human SF268 cells after 48 hrs by sulforhodamine B assay; type: functional; conditions: SF-268, 48 h
UACC-62 = assay: Growth inhibition of human UACC62 cells after 48 hrs by sulforhodamine B assay; type: functional; conditions: UACC-62, 48 h
WI-38 VA13 = assay: Growth inhibition of human VA13 cells after 48 hrs by sulforhodamine B assay; type: functional, cell-based
HepG2 = assay: Growth inhibition of human HepG2 cells after 48 hrs by sulforhodamine B assay; type: functional, cell-based

Compound: CCOC(=O)C(CCc1ccc([N+](=O)[O-])cc1)c1ccccc1 (centres undefined)
- GI50 (MCF7): 134 µM
- GI50 (NCI-H460): > 150 µM
- GI50 (SF-268): > 150 µM

Compound: CCOC(=O)C(CCCc1cccc(N=[N+]=[N-])c1)c1ccccc1 (centres undefined)
- GI50 (MCF7): 119 µM
- GI50 (NCI-H460): > 150 µM
- GI50 (SF-268): > 150 µM

Compound: O=[N+]([O-])c1ccc(CCI)cc1
- GI50 (MCF7): 55.8 µM
- GI50 (NCI-H460): 112 µM
- GI50 (SF-268): 95.7 µM

Compound: CCOC(=O)C(CCc1ccc(N)cc1)c1ccccc1 (centres undefined)
- GI50 (MCF7): 36.3 µM
- GI50 (NCI-H460): 40.8 µM
- GI50 (SF-268): 51.8 µM
- GI50 (UACC-62): 23.3 µM

Compound: CCOC(=O)C(CCCc1ccc(N)cc1)c1ccccc1 (centres undefined)
- GI50 (MCF7): 155 µM
- GI50 (NCI-H460): > 160 µM
- GI50 (SF-268): > 160 µM
- GI50 (UACC-62): > 100 µM

Compound: COC(=O)/C=C/c1cccc([N+](=O)[O-])c1
- GI50 (MCF7): 74.1 µM
- GI50 (NCI-H460): 175 µM
- GI50 (SF-268): 180 µM

Compound: CCOC(=O)C(CCCc1ccc(N=[N+]=[N-])cc1)c1ccccc1 (centres undefined)
- GI50 (MCF7): > 150 µM
- GI50 (NCI-H460): > 150 µM
- GI50 (SF-268): > 150 µM

Compound: COc1cccc2c1C(=O)c1c(O)c3c(c(O)c1C2=O)C[C@@](O)(C(=O)CO)C[C@@H]3O[C@H]1C[C@H](N)[C@H](O)[C@H](C)O1 [DOXORUBICIN]
- GI50 (MCF7): 42.8 µM
- GI50 (NCI-H460): 0.094 µM
- GI50 (SF-268): 0.094 µM

Compound: CCOC(=O)C1CCC(c2ccc(N)cc2)c2ccccc21 (racemic)
- GI50 (MCF7): 117 µM
- GI50 (NCI-H460): 142 µM
- GI50 (SF-268): 116 µM
- growth inhibition (GI) (WI-38 VA13): inactive

Compound: CCOC(=O)C(CCc1cccc(N=[N+]=[N-])c1)c1ccccc1 (centres undefined)
- GI50 (MCF7): 120 µM
- GI50 (NCI-H460): > 160 µM
- GI50 (SF-268): > 160 µM

Compound: CCOC(=O)C1CCC2(C=CC(=O)C=C2)c2ccccc21 (centres undefined)
- GI50 (MCF7): 16.4 µM
- GI50 (NCI-H460): 19.2 µM
- GI50 (SF-268): 21.9 µM

Compound: CCOC(=O)C(CCc1cccc(N)c1)c1ccccc1 (centres undefined)
- GI50 (MCF7): 104 µM
- GI50 (NCI-H460): 132 µM
- GI50 (SF-268): 159 µM
- GI50 (UACC-62): 102 µM

Compound: CCOC(=O)C(CCCc1cccc(N)c1)c1ccccc1 (centres undefined)
- GI50 (MCF7): 109 µM
- GI50 (NCI-H460): 154 µM
- GI50 (SF-268): > 160 µM
- GI50 (UACC-62): 125 µM

Compound: CCOC(=O)C(CCc1ccc(N=[N+]=[N-])cc1)c1ccccc1 (centres undefined)
- GI50 (MCF7): 125 µM
- GI50 (NCI-H460): > 160 µM
- GI50 (SF-268): > 160 µM

Compound: COC(=O)/C=C/c1ccc([N+](=O)[O-])cc1
- GI50 (MCF7): 214 µM
- GI50 (NCI-H460): > 240 µM
- GI50 (SF-268): > 240 µM

Compound: COc1cc(C2c3c(cc4c(c3OC)OCO4)CC(COC(C)=O)C2COC(C)=O)cc(OC)c1O (centres undefined)
- growth inhibition (GI) (HepG2): inactive

Compound: CCOC(=O)C(CCCc1ccc([N+](=O)[O-])cc1)c1ccccc1 (centres undefined)
- GI50 (MCF7): 16.4 µM
- GI50 (NCI-H460): 19.4 µM
- GI50 (SF-268): 23.2 µM

Compound: CCOC(=O)C(CCc1cccc([N+](=O)[O-])c1)c1ccccc1 (centres undefined)
- GI50 (MCF7): 92.7 µM
- GI50 (NCI-H460): 149 µM
- GI50 (SF-268): > 150 µM

Compound: O=[N+]([O-])c1cccc(CCCO)c1
- GI50 (MCF7): > 250 µM
- GI50 (NCI-H460): > 250 µM
- GI50 (SF-268): > 250 µM
- GI50 (UACC-62): > 250 µM

Compound: CCOC(=O)C(CCCc1cccc([N+](=O)[O-])c1)c1ccccc1 (centres undefined)
- GI50 (MCF7): 149 µM
- GI50 (NCI-H460): > 150 µM
- GI50 (SF-268): > 150 µM
